Laboratory results: ChEMBL document CHEMBL2406972, “Synthesis and antitumor activities of novel dibenzo[b,d]furan-imidazole hybrid compounds” (Eur J Med Chem, 2013)

Columns and labels:
Type in all cases: functional, cell-based
A549 = experiment: Cytotoxicity against human A549 cells after 48 hrs by MTT assay; conditions: A549, 48 h
SMMC-7721 = experiment: Cytotoxicity against human SMMC7721 cells after 48 hrs by MTT assay; conditions: SMMC-7721, 48 h
SW480 = experiment: Cytotoxicity against human SW480 cells after 48 hrs by MTT assay; conditions: SW480, 48 h
MCF7 = experiment: Cytotoxicity against human MCF7 cells after 48 hrs by MTT assay; conditions: MCF7, 48 h
HL-60 = experiment: Cytotoxicity against human HL60 cells after 48 hrs by MTT assay; conditions: HL-60, 48 h

Cc1n(C(c2ccccc2)c2ccc3oc4ccccc4c3c2)cc[n+]1CC(=O)c1ccc(F)cc1 (stereo not given)
IC50 (A549): 4.88 µM | IC50 (SMMC-7721): 4.22 µM | IC50 (SW480): 1.89 µM | IC50 (MCF7): 3.23 µM | IC50 (HL-60): 2.13 µM

CCCC[n+]1ccn(C(C)c2ccc3oc4ccccc4c3c2)c1C (stereo not given)
IC50 (A549): 13 µM | IC50 (SMMC-7721): 7.98 µM | IC50 (SW480): 10 µM | IC50 (MCF7): 6.6 µM | IC50 (HL-60): 3.08 µM

COc1ccc(C(=O)C[n+]2ccn(C(c3ccccc3)c3ccc4oc5ccccc5c4c3)c2C)cc1 (stereo not given)
IC50 (A549): 1.9 µM | IC50 (SMMC-7721): 2.08 µM | IC50 (SW480): 3.73 µM | IC50 (MCF7): 2.42 µM | IC50 (HL-60): 0.59 µM

COc1ccc(C(=O)C[n+]2ccn(C(c3ccccc3)c3ccc4oc5ccccc5c4c3)c2)cc1 (stereo not given)
IC50 (A549): 7.27 µM | IC50 (SMMC-7721): 5.59 µM | IC50 (SW480): 3.76 µM | IC50 (MCF7): 4.12 µM | IC50 (HL-60): 2.09 µM

Cc1n(C(C)c2ccc3oc4ccccc4c3c2)cc[n+]1Cc1ccc([N+](=O)[O-])cc1 (stereo not given)
IC50 (A549): > 40 µM | IC50 (SMMC-7721): > 40 µM | IC50 (SW480): > 40 µM | IC50 (MCF7): > 40 µM | IC50 (HL-60): 14.6 µM

Cc1n(C(c2ccccc2)c2ccc3oc4ccccc4c3c2)cc[n+]1Cc1ccc([N+](=O)[O-])cc1 (stereo not given)
IC50 (A549): > 40 µM | IC50 (SMMC-7721): 18.5 µM | IC50 (SW480): 18.2 µM | IC50 (MCF7): 15.3 µM | IC50 (HL-60): 8.74 µM

COc1ccc(C(=O)C[n+]2cn(C(C)c3ccc4oc5ccccc5c4c3)c3ccccc32)cc1 (stereo not given)
IC50 (A549): 5.95 µM | IC50 (SMMC-7721): 2.95 µM | IC50 (SW480): 3.18 µM | IC50 (MCF7): 3.42 µM | IC50 (HL-60): 2.05 µM

CCCC[n+]1ccn(C(C)c2ccc3oc4ccccc4c3c2)c1 (stereo not given)
IC50 (A549): 12.8 µM | IC50 (SMMC-7721): 14.2 µM | IC50 (SW480): 24.1 µM | IC50 (MCF7): 9.11 µM | IC50 (HL-60): 5.63 µM

CC(c1ccc2oc3ccccc3c2c1)n1cc[n+](CC(=O)c2ccc(O)cc2)c1 (stereo not given)
IC50 (A549): > 40 µM | IC50 (SMMC-7721): > 40 µM | IC50 (SW480): > 40 µM | IC50 (MCF7): > 40 µM | IC50 (HL-60): > 40 µM

Cc1n(C(C)c2ccc3oc4ccccc4c3c2)cc[n+]1CC(=O)c1ccc(O)cc1 (stereo not given)
IC50 (A549): 28.6 µM | IC50 (SMMC-7721): 13.3 µM | IC50 (SW480): 37.5 µM | IC50 (MCF7): 26.4 µM | IC50 (HL-60): 12.2 µM

c1ccc(C(c2ccc3oc4ccccc4c3c2)n2ccnc2)cc1 (stereo not given)
IC50 (A549): 24.6 µM | IC50 (SMMC-7721): 33.7 µM | IC50 (SW480): > 40 µM | IC50 (MCF7): > 40 µM | IC50 (HL-60): 21 µM

CC(c1ccc2oc3ccccc3c2c1)n1c[n+](CC(=O)c2ccc(F)cc2)c2ccccc21 (stereo not given)
IC50 (A549): 13.7 µM | IC50 (SMMC-7721): 6.31 µM | IC50 (SW480): 9.77 µM | IC50 (MCF7): 3.85 µM | IC50 (HL-60): 1.67 µM

CC(c1ccc2oc3ccccc3c2c1)n1cc[n+](Cc2ccc([N+](=O)[O-])cc2)c1 (stereo not given)
IC50 (A549): > 40 µM | IC50 (SMMC-7721): 22.5 µM | IC50 (SW480): > 40 µM | IC50 (MCF7): 13.8 µM | IC50 (HL-60): 11.3 µM

CC(c1ccc2oc3ccccc3c2c1)n1c[n+](CC(=O)c2ccc(O)cc2)c2ccccc21 (stereo not given)
IC50 (A549): 20.1 µM | IC50 (SMMC-7721): 24.1 µM | IC50 (SW480): 16.3 µM | IC50 (MCF7): 14.2 µM | IC50 (HL-60): 2.35 µM

Cc1n(C(c2ccccc2)c2ccc3oc4ccccc4c3c2)cc[n+]1CC(=O)c1ccc(Br)cc1 (stereo not given)
IC50 (A549): 9.46 µM | IC50 (SMMC-7721): 3.93 µM | IC50 (SW480): 1.98 µM | IC50 (MCF7): 3.45 µM | IC50 (HL-60): 2.25 µM

O=C(C[n+]1cn(C(c2ccccc2)c2ccc3oc4ccccc4c3c2)c2ccccc21)c1ccccc1 (stereo not given)
IC50 (A549): 13.6 µM | IC50 (SMMC-7721): 4.61 µM | IC50 (SW480): 3.54 µM | IC50 (MCF7): 2.5 µM | IC50 (HL-60): 2.3 µM

c1ccc(C(c2ccc3oc4ccccc4c3c2)n2cnc3ccccc32)cc1 (stereo not given)
IC50 (A549): 23.4 µM | IC50 (SMMC-7721): 25.4 µM | IC50 (SW480): > 40 µM | IC50 (MCF7): 20.9 µM | IC50 (HL-60): 17.2 µM

Cc1n(C(C)c2ccc3oc4ccccc4c3c2)cc[n+]1CC(=O)c1ccc2ccccc2c1 (stereo not given)
IC50 (A549): 3.86 µM | IC50 (SMMC-7721): 2.15 µM | IC50 (SW480): 3.09 µM | IC50 (MCF7): 1.65 µM | IC50 (HL-60): 0.6 µM
